Results published in patent US9096607B2, “Tumor necrosis factor inhibitors” (THE TRUSTEES OF THE UNIVERSITY OF PENNSYLVANIA, priority 2005, dated 2015).

Test system: collagen induced arthritis
Test: Collagen induced arthritis in mice
Format: in vivo, mouse
Settings: DBA/1 mice
Protocol: Activity of compound I-9 was studied in a mouse collagen induced arthritis system, which is a model for human rheumatoid arthritis. Six to eight weeks old male DBA/1 mice were immunized by multiple intradermal injections of 100 μg chicken type II collagen (Sigma Chemical Co., St. Louis, Mo.) in 100 μl of 0.1 M acetic acid emulsified in an equal volume of complete Freund's adjuvant and were then challenged with the same antigen preparation i.p. on the 21st day. Animals were injected daily with the compound I-9 at different dosages (2-4 mg/kg/day) beginning on day 21 and animals were examined physically every other day in a blinded manner. In this model, disease typically develops 7-10 days after the second immunization, and the severity of disease can be determined by physical examination, joint histochemistry, or both techniques. […] Male DBA/1 mice (6-8-wk-old) were purchased from Jackson Laboratory (Bar Harbor, Me.) and housed in University of Pennsylvania Animal Care Facilities. Animals were maintained in accordance with guidelines of Institutional Animal Care and Use Committee (IACUC) of the University of Pennsylvania. For CIA induction, mice were immunized by multiple intradermal injections of 100 μg chicken type II collagen (Sigma Chemical Co., St. Louis, Mo.) in 100 μL of 0.1M acetic acid emulsified in an equal volume of complete Freund's adjuvant. Mice were challenged with the same antigen preparation i.p. at the 21st day. Mice were injected daily with the test compound at different dosage (2 and 4 mg/kg of body weight) from day 21. Disease develops 7-10 day after the second immunization. Mice were examined physically every other day in a blind manner. Their paws were scored individually as follows: 0=normal; 1=Erythema and mild swelling confined to the ankle joint or toes; 2=Erythema and mild swelling extending from the ankle to the midfoot or ankle joint; 3=Erythema and moderate swelling extending from the ankle to the metatarsal joints; and 4=Erythema and severe swelling encompass the ankle, foot, and digits. The maximum disease score per foot is 4, and the maximum disease score per mouse is 16. For histological examination of the joint, mice were killed at different time points, and their paws were collected and fixed in 10% formalin. The paws were then decalcified in hydrochloric acid, embedded in paraffin, sectioned, and stained with hematoxylin and eosin (H&E).

Structure (SMILES): CC(=O)Oc1ccc(C(C)(c2ccc(OC(C)=O)cc2)c2ccc(OC(C)=O)cc2)cc1 [Compound I-9, 1,1,1-Tris-(4-acetoxyphenyl)ethane]
- clinical symptoms of arthritis (2-4 mg/kg/day daily from day 21, vs untreated or control groups): dose dependent decrease
- cartilage destruction (treated): prevented
- infiltration, histological analysis of ankle joints (treated): markedly reduced
- synovial tissue, histological analysis of ankle joints (treated): less synovial tissue
